Experimental data reported in ChEMBL document CHEMBL2346569, “Synthesis and biological evaluation of pyridazine derivatives as novel HIV-1 NNRTIs” (Bioorg Med Chem, 2013).
pEC50, pIC50: −log10 of the molar value.

Assays:
[1] = tested on: Human immunodeficiency virus 1; test: Antiviral activity against HIV1 harboring reverse transcriptase L100I/K103N double mutant infected in human MT4 cells assessed as protection against virus-induced cytopathicity after 5 days by MTT assay; assay type: functional, organism-based; conditions: Human immunodeficiency virus 1, MT4, 120 h
[2] = tested on: Human immunodeficiency virus 1; test: Antiviral activity against HIV1 harboring reverse transcriptase K103N/Y181C double mutant infected in human MT4 cells assessed as protection against virus-induced cytopathicity after 5 days by MTT assay; assay type: functional, organism-based; conditions: Human immunodeficiency virus 1, MT4, 120 h
[3] = tested on: Human immunodeficiency virus 1; test: Antiviral activity against wild type HIV1 LAI infected in human MT4 cells assessed as protection against virus-induced cytopathicity after 5 days by MTT assay; assay type: functional, organism-based; conditions: Human immunodeficiency virus 1, LAI, MT4, 120 h
[4] = tested on: Human immunodeficiency virus 2; test: Antiviral activity against HIV2 ROD infected in human MT4 cells assessed as protection against virus-induced cytopathicity after 5 days by MTT assay; assay type: functional, organism-based, ISOLATE ROD; conditions: for EC50: mt4
[5] = Selectivity index, ratio of CC50 for mock-infected human MT4 cells to EC50 for wild type HIV1 3B
[6] = tested on: Human immunodeficiency virus 1; test: Antiviral activity against wild type HIV1 3B infected in human MT4 cells assessed as protection against virus-induced cytopathicity after 5 days by MTT assay; assay type: functional, organism-based; conditions: Human immunodeficiency virus 1, 3B, MT4, 120 h
[7] = tested on: Human immunodeficiency virus 1; test: Antiviral activity against HIV1 RES056 harboring reverse transcriptase K103N/Y181C double mutant infected in human MT4 cells assessed as protection against virus-induced cytopathicity after 5 days by MTT assay; assay type: functional, organism-based; conditions: for EC50: mt4
[8] = Cytotoxicity against mock-infected human MT4 cells assessed as cell viability after 5 days by MTT assay; assay type: cell-based
[9] = molecular target: Human immunodeficiency virus type 1 reverse transcriptase (Human immunodeficiency virus 1, UniProt Q72547); test: Inhibition of HIV 1 reverse transcriptase assessed as incorporation of biotin-dUTP into poly rA.dT by ELISA

| Structure (SMILES) | pEC50 [1] | pEC50 [2] | pEC50 [3] | EC50 [4] | selectivity ratio ([5]; mock-infected MT4 cells) | pEC50 [6] | EC50 [7] | CC50 at 120 h [8] [nM] | pIC50 [9] | pEC50 ([4]; Human immunodeficiency virus 2, ISOLATE ROD, MT4, 120 h, read-out: EC50) | selectivity ratio ([5]; mt4) | pEC50 ([7]; Human immunodeficiency virus 1, RES056, MT4, 120 h, read-out: EC50) |
| --- | --- | --- | --- | --- | --- | --- | --- | --- | --- | --- | --- | --- |
| Cc1cc(C#N)cc(C)c1Oc1nc(Nc2ccc(C#N)cc2)c(=O)n(C)c1C | 6.80 | 7.21 | 8.22 |  |  |  |  |  |  |  |  |  |
| Cc1cc(C#N)cc(C)c1Oc1ccc(=O)n(Nc2ccc(C#N)cc2)n1 |  |  | 5.76 |  |  |  |  |  |  |  |  |  |
| Cc1ccc(Nc2cc(Oc3c(C)cc(C)cc3C)c(=O)[nH]n2)cc1 |  |  |  | Not Active | 119 | 5.81 | Not Active | 185000 |  |  |  |  |
| Cc1cc(C)c(Oc2cc(Nc3ccc([N+](=O)[O-])cc3)n[nH]c2=O)c(C)c1 |  |  |  | Not Active | 7 | 5.29 | Not Active | 37100 |  |  |  |  |
| COc1ccc(Nc2cc(Oc3c(C)cc(C)cc3C)c(=O)[nH]n2)cc1 |  |  |  | Not Active | 4 | 5.80 | Not Active | 5880 |  |  |  |  |
| Cc1cc(C)c(Oc2cc(Nc3ccc(C#N)cc3)n[nH]c2=O)c(C)c1 |  |  |  | Not Active | 180 | 6.59 | Not Active | 47000 |  |  |  |  |
| N#Cc1ccc(Nc2cc(Oc3c(Cl)cc(Cl)cc3Cl)c(=O)[nH]n2)cc1 |  |  |  | Not Active |  | ≤ 5.04 | Not Active | 35000 |  |  |  |  |
| N#Cc1ccc(Nc2cc(Oc3c(Br)cc(Br)cc3Br)c(=O)[nH]n2)cc1 |  |  |  | Not Active | 221 | 6.20 | Not Active | 139000 |  |  |  |  |
| Cc1cc(Br)c(Oc2cc(Nc3ccc(C#N)cc3)n[nH]c2=O)c(Br)c1 |  |  |  | Not Active | 733 | 6.68 | Not Active | 154000 |  |  |  |  |
| Cc1cc(Br)cc(C)c1Oc1cc(Nc2ccc(C#N)cc2)n[nH]c1=O |  |  |  | Not Active | 16 | 5.92 | Not Active | 19500 |  |  |  |  |
| Cc1cc(C)c(Oc2cc(Nc3cccc(Cl)c3)n[nH]c2=O)c(C)c1 |  |  |  | Not Active | 8 | 4.84 | Not Active | 119000 |  |  |  |  |
| Cc1cccc(C)c1Oc1cc(Nc2ccc(C#N)cc2)n[nH]c1=O |  |  |  | Not Active | 108 | 5.72 | Not Active | 205000 |  |  |  |  |
| Cc1cc(C#N)cc(C)c1Oc1cc(Nc2ccc(C#N)cc2)n[nH]c1=O |  |  |  | Not Active | 96 | 5.55 | Not Active | 272000 |  |  |  |  |
| Cc1cc(C)c(Oc2cc(Nc3ccc(C#N)cc3)nn(C)c2=O)c(C)c1 |  |  |  | Not Active | 123 | 5.94 | Not Active | 143000 |  |  |  |  |
| Cc1cc(C)c(Oc2cc(N(C)c3ccc(C#N)cc3)nn(C)c2=O)c(C)c1 |  |  |  | Not Active | ≥ 73 | 5.47 | Not Active | ≥ 246000 |  |  |  |  |
| Cc1cc(C)c(Oc2cc(Nc3ccc(Cl)cc3)nnc2Cl)c(C)c1 |  |  |  | Not Active | 1510 | 6.86 | Not Active | 210000 |  |  |  |  |

| Structure (SMILES) | pEC50 [1] | pEC50 [2] | pEC50 [3] | EC50 [4] | selectivity ratio ([5]; mock-infected MT4 cells) | pEC50 [6] | EC50 [7] | CC50 at 120 h [8] [nM] | pIC50 [9] | pEC50 ([4]; Human immunodeficiency virus 2, ISOLATE ROD, MT4, 120 h, read-out: EC50) | selectivity ratio ([5]; mt4) | pEC50 ([7]; Human immunodeficiency virus 1, RES056, MT4, 120 h, read-out: EC50) |
| --- | --- | --- | --- | --- | --- | --- | --- | --- | --- | --- | --- | --- |
| Cc1ccc(Nc2cc(Oc3c(C)cc(C)cc3C)c(Cl)nn2)cc1 |  |  |  | Not Active | 1210 | 6.70 | Not Active | 244000 |  |  |  |  |
| Cc1cc(C)c(Oc2cc(Nc3ccc([N+](=O)[O-])cc3)nnc2Cl)c(C)c1 |  |  |  | Not Active | < 1 | < 6.03 | Not Active | 940 |  |  |  |  |
| Cc1cc(C)c(Oc2cc(Nc3ccc(C#N)cc3)nnc2Cl)c(C)c1 |  |  |  | Not Active | 461 | 7.10 | Not Active | 36300 |  |  |  |  |
| N#Cc1ccc(Nc2cc(Oc3c(Cl)cc(Cl)cc3Cl)c(Cl)nn2)cc1 |  |  |  | Not Active | 120 | 6.81 | Not Active | 18600 |  |  |  |  |
| N#Cc1ccc(Nc2cc(Oc3c(Br)cc(Br)cc3Br)c(Cl)nn2)cc1 |  |  |  | Not Active | 124 | 6.74 | Not Active | 22300 |  |  |  |  |
| Cc1cc(Br)c(Oc2cc(Nc3ccc(C#N)cc3)nnc2Cl)c(Br)c1 |  |  |  | Not Active | 565 | 7.47 | Not Active | 19200 | 5.50 |  |  |  |
| Cc1cc(Br)cc(C)c1Oc1cc(Nc2ccc(C#N)cc2)nnc1Cl |  |  |  | Not Active | 210 | 6.40 | Not Active | 84100 |  |  |  |  |
| COc1cccc(OC)c1Oc1cc(Nc2ccc(C#N)cc2)nnc1Cl |  |  |  | Not Active | < 1 | < 5.54 | Not Active | 2900 |  |  |  |  |
| N#Cc1ccc(Nc2cc(Oc3c(Cl)cccc3Cl)c(Cl)nn2)cc1 |  |  |  | Not Active | 423 | 6.66 | Not Active | 93100 |  |  |  |  |
| Cc1cc(C#N)cc(C)c1Oc1cc(Nc2ccc(C#N)cc2)nnc1Cl |  |  |  | Not Active | 369 | 6.84 | Not Active | 53200 |  |  |  |  |
| Cc1cccc(C)c1Oc1cc(Nc2ccc(C#N)cc2)nnc1Cl |  |  |  | Not Active | 537 | 6.27 | Not Active | 290000 |  |  |  |  |
| Cc1cc(C)c(Oc2cc(Nc3ccc(Cl)cc3)n[nH]c2=O)c(C)c1 |  |  |  | Not Active | 8 | 6.11 | Not Active | 5980 |  |  |  |  |
| CC(C)Nc1cccnc1N1CCN(C(=O)c2cc3cc(NS(C)(=O)=O)ccc3[nH]2)CC1 [DELAVIRDINE] |  |  |  | Not Active | > 1030 | 7.38 | Not Active | > 43400 |  |  |  |  |
| O=C1Nc2ccc(Cl)cc2[C@@](C#CC2CC2)(C(F)(F)F)O1 [EFAVIRENZ] |  |  |  |  |  | 8.15 |  | > 2000 |  | 7.70 | > 286 | 6.23 |
| Cc1cc(C#N)cc(C)c1Oc1nc(Nc2ccc(C#N)cc2)nc(N)c1Br [ETRAVIRINE] |  |  |  | Not Active |  |  |  | > 4600 |  |  |  |  |
| Cc1ccnc2c1NC(=O)c1cccnc1N2C1CC1 [NEVIRAPINE] |  |  |  | Not Active |  |  | Not Active | > 14900 |  |  |  |  |
